What all share (format): in vivo
The subject of one data set is Bemisia tabaci. Nature of the data set: Activity against Bemisia tabaci (cotton white fly), cotton leaf discs. As to conditions: for mortality at 200 ppm: foliar, 144 h, application rate 200 ppm, adult white flies, 6 days after incubation. As to the method: Example B6: Activity Against Bemisia tabaci (Cotton White Fly)
Cotton leaf discs were placed on agar in 24-well microtiter plates and sprayed with aqueous test solutions prepared from 10′000 ppm DMSO stock solutions. After drying the leaf discs were infested with adult white flies. The samples were checked for mortality 6 days after incubation.

In another data set the test system is Plutella xylostella. Kind of data set: Activity against Plutella xylostella (diamond back moth), artificial diet, eggs. As to conditions: 192 h, application rate 200 ppm, 8 days after infestation, read-out: effect in at least one of the two categories (mortality or growth inhibition). As to the method:
Example B9: Activity Against Plutella xylostella (Diamond Back Moth)
24-well microtiter plates with artificial diet were treated with aqueous test solutions prepared from 10′000 ppm DMSO stock solutions by pipetting. After drying, Plutella eggs were pipetted through a plastic stencil onto a gel blotting paper and the plate was closed with it. The samples were assessed for mortality and growth inhibition in comparison to untreated samples 8 days after infestation.

Data set [1] deals with Myzus persicae. Kind of data set: Activity against Myzus persicae (green peach aphid), feeding/contact activity, sunflower leaf discs. To be noted: for mortality at 200 ppm: Myzus persicae, foliar, 144 h, application rate 200 ppm, feeding/contact, 6 days after infestation; for Mortality (%): Myzus persicae (feeding/contact). On the procedure: Example B4: Activity Against Myzus persicae (Green Peach Aphid) Feeding/Contact Activity
Sunflower leaf discs were placed on agar in a 24-well microtiter plate and sprayed with aqueous test solutions prepared from 10′000 ppm DMSO stock solutions. After drying, the leaf discs were infested with an aphid population of mixed ages. The samples were assessed for mortality 6 days after infestation.

The test system of another data set is Chilo suppressalis. Kind of data set: Activity against Chilo suppressalis (striped rice stemborer), artificial diet. To be noted: 144 h, application rate 200 ppm, L2 larvae, 6 days after infestation. On the procedure: Example B11: Activity Against Chilo suppressalis (Striped Rice Stemborer)
24-well microtiter plates with artificial diet were treated with aqueous test solutions prepared from 10′000 ppm DMSO stock solutions by pipetting. After drying, the plates were infested with L2 larvae (6-8 per well). The samples were assessed for mortality, anti-feeding effect, and growth inhibition in comparison to untreated samples 6 days after infestation. Control of Chilo suppressalis by a test sample is given when at least one of the categories mortality, anti-feedant effect, and growth inhibition is higher than the untreated sample.

Data set [2] deals with Myzus persicae. Kind of data set: Activity against Myzus persicae (green peach aphid), systemic activity, pea seedlings. As to conditions: Myzus persicae. As to the method: Example B5: Activity Against Myzus persicae (Green Peach Aphid) Systemic Activity
Roots of pea seedlings infested with an aphid population of mixed ages were placed directly in the aqueous test solutions prepared from 10′000 DMSO stock solutions. The samples were assessed for mortality 6 days after placing seedlings in test solutions.

Data set [3] has as its system Frankliniella occidentalis. Kind of data set: Activity against Frankliniella occidentalis (western flower thrips), sunflower leaf discs. To be noted: foliar, 168 h, application rate 200 ppm, mixed ages, 7 days after infestation. On the procedure: Example B8: Activity Against Frankliniella occidentalis (Western Flower Thrips)
Sunflower leaf discs were placed on agar in 24-well microtiter plates and sprayed with aqueous test solutions prepared from […] stock solutions. After drying the leaf discs were infested with a Frankliniella population of mixed ages. The samples were assessed for mortality 7 days after infestation.

For the next data set, the system named is Diabrotica balteata. Kind of data set: Activity against Diabrotica balteata (corn root worm), maize sprouts. As to conditions: for percent effect (mortality or growth inhibition) at 200 ppm: 96 h, application rate 200 ppm, L2 larvae, 4 days after infestation, read-out: effect in at least one of the two categories (mortality or growth inhibition). On the procedure: Example B3: Activity Against Diabrotica Balteata (Corn Root Worm)
Maize sprouts placed onto an agar layer in 24-well microtiter plates were treated with aqueous test solutions prepared from 10′000 ppm DMSO stock solutions by spraying. After drying, the plates were infested with L2 larvae (6 to 10 per well). The samples were assessed for mortality and growth inhibition in comparison to untreated samples 4 days after infestation.

Another data set concerns Spodoptera littoralis. Nature of the data set: Activity against Spodoptera littoralis (Egyptian cotton leaf worm), cotton leaf discs. To be noted: foliar, 72 h, application rate 200 ppm, L1 larvae, 3 days after infestation, read-out: control (mortality, anti-feeding effect or growth inhibition). In outline:
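Cotton leaf discs on agar sprayed with aqueous test solutions made from 10′000 ppm DMSO stocks, dried, then infested with five L1 larvae. Mortality, anti-feeding and growth inhibition scored versus untreated samples 3 days after infestation; control given when any category exceeds untreated.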

Where [4] appears, read: 144 h, test rate 24 ppm, systemic, 6 days after placing seedlings in test solutions.

On to `CCS(=N)(=O)c1cc(C2(C#N)CC2)cnc1-c1nc2cc(C(F)(F)F)ncc2n1C` (racemic) [Compound P10, 1-[5-(ethylsulfonimidoyl)-6-[3-methyl-6-(trifluoromethyl)imidazo[4,5-c]pyridin-2-yl]-3-pyridyl]cyclopropanecarbonitrile], for which the mortality at 200 ppm with Bemisia tabaci and in the data set with Myzus persicae [1] was not below 80% in each case. The percent effect (mortality or growth inhibition) at 200 ppm in the data set on Plutella xylostella was not below 80%. Further, the percent control (mortality, anti-feedant effect or growth inhibition) at 200 ppm in the data set with Chilo suppressalis is not below 80%. Moreover, the mortality at 24 ppm in the data set with Myzus persicae [2] (setting [4]) was not below 80%.

Consider `CCS(=N)(=O)c1cc(OC(C)(C)C#N)cnc1-c1nc2cc(C(F)(F)F)n(C3CC3)c(=O)c2n1C` (single isomer, unassigned) [Compound P1-B, 2-[[6-[5-cyclopropyl-3-methyl-4-oxo-6-(trifluoromethyl)imidazo[4,5-c]pyridin-2-yl]-5-(ethylsulfonimidoyl)-3-pyridyl]oxy]-2-methyl-propanenitrile], for which, in the data set on Plutella xylostella, the percent effect (mortality or growth inhibition) at 200 ppm is not below 80%. Also, the mortality at 200 ppm in data set [3] was not below 80%.

With `CCS(=N)(=O)c1cc(C2(C#N)CC2)cnc1-c1nc2cc(C(F)(F)F)nnc2n1C` (single isomer, unassigned) [Compound P2-A, 1-[5-(ethylsulfonimidoyl)-6-[7-methyl-3-(trifluoromethyl)imidazo[4,5-c]pyridazin-6-yl]-3-pyridyl]cyclopropanecarbonitrile], the mortality at 200 ppm in the data set with Bemisia tabaci and in the data set with Myzus persicae [1] was not below 80% each time. In the data set on Myzus persicae [1] (concentration 3.125 ppm), the “Mortality (%)” value was 100%. Further, the percent control (mortality, anti-feedant effect or growth inhibition) at 200 ppm in the data set on Chilo suppressalis is not below 80%. Further, in the data set with Myzus persicae [2] (setting [4]), the mortality at 24 ppm was not below 80%.

As for `CCS(=N)(=O)c1cc(C2(C#N)CC2)ccc1-c1nc2cc(C(F)(F)F)cnc2n1C` (single isomer, unassigned) [Compound P6-A, 1-[3-(ethylsulfonimidoyl)-4-[3-methyl-6-(trifluoromethyl)imidazo[4,5-b]pyridin-2-yl]phenyl]cyclopropanecarbonitrile], the mortality at 200 ppm in the data set with Bemisia tabaci and in the data set on Myzus persicae [1] was not below 80% throughout. In the data set with Diabrotica balteata, the percent effect (mortality or growth inhibition) at 200 ppm is not below 80%. For the same compound, the mortality at 50 ppm in the data set with Diabrotica balteata (concentration 50 ppm) is 80%. Besides, the percent control (mortality, anti-feedant effect or growth inhibition) at 200 ppm with Chilo suppressalis was not below 80%. In addition, the mortality at 24 ppm in the data set on Myzus persicae [2] (setting [4]) is not below 80%. For the same compound, the mortality at 6 ppm in the data set on Myzus persicae [2] (Myzus persicae (systemic), concentration 6 ppm) stood at 80%.

In the case of `CCS(=N)(=O)c1cc(OC(C)(C)C#N)cnc1-c1cn2cnc(SC(F)(F)F)cc2n1` (single isomer, unassigned) [Compound P7-B, 2-[[5-(ethylsulfonimidoyl)-6-[7-(trifluoromethylsulfanyl)imidazo[1,2-c]pyrimidin-2-yl]-3-pyridyl]oxy]-2-methyl-propanenitrile], the “Mortality (%)” value with Bemisia tabaci (concentration 50 ppm) was 80%. Besides, in the data set on Plutella xylostella, the percent effect (mortality or growth inhibition) at 200 ppm was not below 80%. Further, the mortality at 200 ppm in data set [3] was not below 80%.

With `CCS(=N)(=O)c1cc(C2(C#N)CC2)cnc1-c1nc2cc(C(F)(F)F)n(OC)c(=O)c2n1C` (single isomer, unassigned) [Compound P8-B, 1-[5-(ethylsulfonimidoyl)-6-[5-methoxy-3-methyl-4-oxo-6-(trifluoromethyl)imidazo[4,5-c]pyridin-2-yl]-3-pyridyl]cyclopropanecarbonitrile], in the data set with Plutella xylostella, the percent effect (mortality or growth inhibition) at 200 ppm was not below 80%. This compound displayed a percent control (mortality, anti-feedant effect or growth inhibition) at 200 ppm in the data set with Chilo suppressalis not below 80%.

Turning to `CCS(=N)(=O)c1cc(C2(C#N)CC2)cnc1-c1nc2cc(C(F)(F)F)ncc2n1C` (single isomer, unassigned) [Compound P10-B, 1-[5-(ethylsulfonimidoyl)-6-[3-methyl-6-(trifluoromethyl)imidazo[4,5-c]pyridin-2-yl]-3-pyridyl]cyclopropanecarbonitrile], the entries for the “Mortality (%)” value with Bemisia tabaci (concentration 12.5 ppm) and in the data set on Myzus persicae [1] (concentration 0.781 ppm) were 100% and 80%, respectively. The same compound returned a percent control (mortality, anti-feedant effect or growth inhibition) at 200 ppm with Chilo suppressalis not below 80%.

`CCS(=N)(=O)c1cc(OC(C)(C)C#N)cnc1-c1cn2cnc(C(F)(F)F)cc2n1` (single isomer, unassigned) [Compound P11-A, 2-[[5-(ethylsulfonimidoyl)-6-[7-(trifluoromethyl)imidazo[1,2-c]pyrimidin-2-yl]-3-pyridyl]oxy]-2-methyl-propanenitrile]: the percent effect (mortality or growth inhibition) at 200 ppm with Diabrotica balteata and with Plutella xylostella was not below 80% each time. The mortality at 200 ppm (in data set [3]; with Myzus persicae [1]) was not below 80% in each case. The mortality at 24 ppm in the data set with Myzus persicae [2] (setting [4]) is not below 80%; with Myzus persicae [2] (Myzus persicae (systemic), concentration 24 ppm), 100%.

`CCS(=N)(=O)c1cc(OC(C)(C)C#N)cnc1-c1nc2cc(C(F)(F)F)ncc2n1C` (single isomer, unassigned) [Compound P13-B, 2-[[5-(ethylsulfonimidoyl)-6-[3-methyl-6-(trifluoromethyl)imidazo[4,5-c]pyridin-2-yl]-3-pyridyl]oxy]-2-methyl-propanenitrile]: the percent control (mortality, anti-feedant effect or growth inhibition) at 200 ppm in the data set with Spodoptera littoralis and in the data set on Chilo suppressalis was not below 80% each time. Besides, the “Mortality (%)” value in the data set on Diabrotica balteata (concentration 50 ppm) and in the data set with Myzus persicae [1] (concentration 12.5 ppm) was 100% each time.

For the compound `CCS(=N)(=O)c1cc(C2(C#N)CC2)cnc1-c1nc2cc(C(F)(F)F)cnc2n1C` (single isomer, unassigned) [Compound P16-B, 1-[5-(ethylsulfonimidoyl)-6-[3-methyl-6-(trifluoromethyl)imidazo[4,5-b]pyridin-2-yl]-3-pyridyl]cyclopropanecarbonitrile], the percent control (mortality, anti-feedant effect or growth inhibition) at 200 ppm in the data set on Spodoptera littoralis and in the data set with Chilo suppressalis was not below 80% in each case. The results for the “Mortality (%)” value in the data set on Bemisia tabaci (concentration 12.5 ppm) and in the data set with Myzus persicae [1] (concentration 3.125 ppm) were 80% and 100%, respectively.

On to `CCn1c(C(F)(F)F)cc2nc(-c3ncc(OC(C)(C)C#N)cc3S(=N)(=O)CC)n(C)c2c1=O` (single isomer, unassigned) [Compound P19-B, 2-[[6-[5-ethyl-3-methyl-4-oxo-6-(trifluoromethyl)imidazo[4,5-c]pyridin-2-yl]-5-(ethylsulfonimidoyl)-3-pyridyl]oxy]-2-methyl-propanenitrile], for which the mortality at 200 ppm in data set [3] was not below 80%.

A word on the mortality: it is the percentage killed. High values mean a strong lethal effect, low ones a weak lethal effect.

Values taken from patent publication US20250081967A1, “PESTICIDALLY ACTIVE HETEROCYCLIC DERIVATIVES WITH SULFOXIMINE CONTAINING SUBSTITUENTS” (SYNGENTA CROP PROTECTION AG, priority 2021, published 2025).
